Assay results reported in paper PMC5218480 (PLoS ONE, 2017).

Tested on: MV-4-11 cells
Experiment: Gene expression microarray analysis (Affymetrix PrimeView) and GSEA
Type: cell-based, human
Set-up: RFU PODN (11730768_x_at) / Fold change /veh PODN (11730768_x_at) / RFU LINC00158 (11744669_a_at) / Fold change /veh LINC00158 (11744669_a_at) / RFU DUSP10 (11751237_a_at) / Fold change /veh DUSP10 (11751237_a_at) / RFU ID3 (11757404_x_at) / Fold change /veh ID3 (11757404_x_at) / RFU PLEKHG5 (11737974_s_at) / Fold change /veh PLEKHG5 (11737974_s_at) / RFU LRRC4B (11730491_at) / Fold change /veh LRRC4B (11730491_at) / RFU GIMAP4 (11747438_a_at) / Fold change /veh GIMAP4 (11747438_a_at) / RFU KRT8 (11758183_x_at) / Fold change /veh KRT8 (11758183_x_at) / RFU CNN1 (11734310_a_at) / Fold change /veh CNN1 (11734310_a_at) / RFU VPS37D (11726825_at) / Fold change /veh VPS37D (11726825_at) / RFU C10orf10 (11716522_x_at) / Fold change /veh C10orf10 (11716522_x_at) / RFU KIR2DL2 /// KIR2DL4 /// KIR2DL5A /// KIR2DL5B /// KIR2DS1 /// KIR2DS2 /// KIR2DS3 /// KIR2DS4 /// KIR3DL3 /// KIR3DL3 /// KIR3DS1 (11738374_at) / Fold change /veh KIR2DL2 /// KIR2DL4 /// KIR2DL5A /// KIR2DL5B /// KIR2DS1 /// KIR2DS2 /// KIR2DS3 /// KIR2DS4 /// KIR3DL3 /// KIR3DL3 /// KIR3DS1 (11738374_at) / RFU C1QL1 (11718748_at) / Fold change /veh C1QL1 (11718748_at) / RFU TMPRSS4 (11747572_a_at) / Fold change /veh TMPRSS4 (11747572_a_at) / RFU HAMP (11756126_x_at) / Fold change /veh HAMP (11756126_x_at) / RFU RNFT2 (11725882_a_at) / Fold change /veh RNFT2 (11725882_a_at) / RFU NR4A2 (11747474_a_at) / Fold change /veh NR4A2 (11747474_a_at) / RFU ABCC12 (11746883_a_at) / Fold change /veh ABCC12 (11746883_a_at) / RFU TMEM136 (11760407_x_at) / Fold change /veh TMEM136 (11760407_x_at) / RFU CLDN22 /// WWC2 (11732394_at) / Fold change /veh CLDN22 /// WWC2 (11732394_at) / RFU HLA-DPB1 (11760878_x_at) / Fold change /veh HLA-DPB1 (11760878_x_at) / RFU SPINT1 (11716480_a_at) / Fold change /veh SPINT1 (11716480_a_at) / RFU GAP43 (11754022_s_at) / Fold change /veh GAP43 (11754022_s_at) / RFU A4GNT (11735810_at) / Fold change /veh A4GNT (11735810_at) / RFU PRB3 (11715151_x_at) / Fold change /veh PRB3 (11715151_x_at) / RFU TUBB4B (11761932_at) / Fold change /veh TUBB4B (11761932_at) / RFU CAPN14 (11732068_a_at) / Fold change /veh CAPN14 (11732068_a_at) / RFU TMCC2 (11721928_a_at) / Fold change /veh TMCC2 (11721928_a_at) / RFU IRGQ (11745062_a_at) / Fold change /veh IRGQ (11745062_a_at) / RFU FAM174B (11720279_a_at) / Fold change /veh FAM174B (11720279_a_at) / RFU TMPRSS4 (11748680_a_at) / Fold change /veh TMPRSS4 (11748680_a_at) / RFU FAM212B (11763350_a_at) / Fold change /veh FAM212B (11763350_a_at) / RFU PLEKHG5 (11743358_a_at) / Fold change /veh PLEKHG5 (11743358_a_at) / RFU ZSCAN30 (11745921_a_at) / Fold change /veh ZSCAN30 (11745921_a_at) / RFU CMKLR1 (11741424_a_at) / Fold change /veh CMKLR1 (11741424_a_at) / RFU LOC101060620 /// MAPK8IP1 (11723275_at) / Fold change /veh LOC101060620 /// MAPK8IP1 (11723275_at) / RFU SPTSSB (11747773_x_at) / Fold change /veh SPTSSB (11747773_x_at) / RFU PRSS12 (11739890_at) / Fold change /veh PRSS12 (11739890_at) / RFU BIN1 (11741810_x_at) / Fold change /veh BIN1 (11741810_x_at) / RFU WNT11 (11732464_a_at) / Fold change /veh WNT11 (11732464_a_at) / RFU C10orf10 (11716521_a_at) / Fold change /veh C10orf10 (11716521_a_at) / RFU C5orf56 (11738089_at) / Fold change /veh C5orf56 (11738089_at) / RFU CYB561 (11721691_x_at) / Fold change /veh CYB561 (11721691_x_at) / RFU ANKRD19P (11752326_a_at) / Fold change /veh ANKRD19P (11752326_a_at) / RFU OR2T12 /// OR2T33 /// OR2T8 (11738714_s_at) / Fold change /veh OR2T12 /// OR2T33 /// OR2T8 (11738714_s_at) / RFU VCAN (11748164_a_at) / Fold change /veh VCAN (11748164_a_at) / RFU JSRP1 (11732532_at) / Fold change /veh JSRP1 (11732532_at) / RFU KRTAP10-11 (11738290_x_at) / Fold change /veh KRTAP10-11 (11738290_x_at) / RFU MYO3A (11730013_a_at) / Fold change /veh MYO3A (11730013_a_at) / RFU EBF3 (11725865_a_at) / Fold change /veh EBF3 (11725865_a_at) / RFU CAMK2N1 (11719241_x_at) / Fold change /veh CAMK2N1 (11719241_x_at) / RFU C5orf56 (11738088_a_at) / Fold change /veh C5orf56 (11738088_a_at) / RFU OLFML3 (11715873_a_at) / Fold change /veh OLFML3 (11715873_a_at) / RFU LOC100653217 /// NTM (11731650_a_at) / Fold change /veh LOC100653217 /// NTM (11731650_a_at) / RFU MAPK11 (11762145_a_at) / Fold change /veh MAPK11 (11762145_a_at) / RFU FIZ1 (11724087_x_at) / Fold change /veh FIZ1 (11724087_x_at) / RFU OASL (11726364_x_at) / Fold change /veh OASL (11726364_x_at) / RFU SOX15 (11748057_x_at) / Fold change /veh SOX15 (11748057_x_at) / RFU CD79A (11719716_a_at) / Fold change /veh CD79A (11719716_a_at) / RFU HIST1H1D (11736915_at) / Fold change /veh HIST1H1D (11736915_at) / RFU CASKIN2 (11723855_a_at) / Fold change /veh CASKIN2 (11723855_a_at) / RFU LOC730098 (11760151_x_at) / Fold change /veh LOC730098 (11760151_x_at) / RFU OR4N2 (11742367_at) / Fold change /veh OR4N2 (11742367_at) / RFU PRRT2 (11749266_a_at) / Fold change /veh PRRT2 (11749266_a_at) / RFU SNX32 (11753110_a_at) / Fold change /veh SNX32 (11753110_a_at) / RFU CDHR5 (11726645_a_at) / Fold change /veh CDHR5 (11726645_a_at) / RFU RCAN1 (11760418_a_at) / Fold change /veh RCAN1 (11760418_a_at) / RFU FAM167A (11723789_a_at) / Fold change /veh FAM167A (11723789_a_at) / RFU FAM26E (11764081_at) / Fold change /veh FAM26E (11764081_at) / RFU ISYNA1 (11749810_s_at) / Fold change /veh ISYNA1 (11749810_s_at) / RFU ACY1 (11761880_at) / Fold change /veh ACY1 (11761880_at) / RFU 11764098_at / Fold change /veh 11764098_at / RFU SAMD14 (11745864_x_at) / Fold change /veh SAMD14 (11745864_x_at) / RFU NPB (11741838_a_at) / Fold change /veh NPB (11741838_a_at) / RFU TMPRSS6 (11731388_a_at) / Fold change /veh TMPRSS6 (11731388_a_at) / RFU KRTAP10-2 (11738614_at) / Fold change /veh KRTAP10-2 (11738614_at) / RFU ARHGAP8 /// PRR5-ARHGAP8 (11727945_x_at) / Fold change /veh ARHGAP8 /// PRR5-ARHGAP8 (11727945_x_at) / RFU KRTAP5-7 /// NADSYN1 (11734609_at) / Fold change /veh KRTAP5-7 /// NADSYN1 (11734609_at) / RFU RASL12 (11751679_a_at) / Fold change /veh RASL12 (11751679_a_at) / RFU CDKN2B (11736163_a_at) / Fold change /veh CDKN2B (11736163_a_at) / RFU PRF1 (11729649_at) / Fold change /veh PRF1 (11729649_at) / RFU, ZNF638 /// ZNF638-IT1 / Fold change vs veh, ZNF638 /// ZNF638-IT1 / RFU, PANK3 / Fold change vs veh, PANK3 / RFU, SH3YL1 / Fold change vs veh, SH3YL1 / RFU, ZEB2 / Fold change vs veh, ZEB2 / RFU, NRIP1 / Fold change vs veh, NRIP1 / RFU, PTTG1IP / Fold change vs veh, PTTG1IP / RFU, CAPN2 / Fold change vs veh, CAPN2 / RFU, MED14 / Fold change vs veh, MED14 / RFU, SNORA58 / Fold change vs veh, SNORA58 / RFU, C1orf63 / Fold change vs veh, C1orf63 / RFU, LRRFIP1 / Fold change vs veh, LRRFIP1 / RFU, NDUFAF7 / Fold change vs veh, NDUFAF7 / RFU, SLC12A2 / Fold change vs veh, SLC12A2 / RFU, IBTK / Fold change vs veh, IBTK / RFU, ESF1 / Fold change vs veh, ESF1 / Fold change vs veh, TMEM50B / RFU, TAOK1 / Fold change vs veh, TAOK1 / RFU, ACBD3 / Fold change vs veh, ACBD3 / RFU, TMA16 / Fold change vs veh, TMA16 / RFU, RWDD3 / Fold change vs veh, RWDD3 / RFU, BCAT1 / Fold change vs veh, BCAT1 / RFU, EDEM3 / Fold change vs veh, EDEM3 / RFU, TMEM33 / Fold change vs veh, TMEM33 / RFU, WDR75 / Fold change vs veh, WDR75 / RFU, AHCTF1 / Fold change vs veh, AHCTF1 / RFU, TFRC / Fold change vs veh, TFRC / RFU, ZDHHC17 / Fold change vs veh, ZDHHC17 / RFU, NOM1 / Fold change vs veh, NOM1 / RFU, ARL8B / Fold change vs veh, ARL8B / RFU, ZBTB11 / Fold change vs veh, ZBTB11 / RFU, TAMM41 / Fold change vs veh, TAMM41 / RFU, KIAA1704 /// LOC100996395 / Fold change vs veh, KIAA1704 /// LOC100996395 / RFU, ING1 / Fold change vs veh, ING1 / RFU, TRMT61B / Fold change vs veh, TRMT61B / RFU, FUBP3 / Fold change vs veh, FUBP3 / RFU, TP53 / Fold change vs veh, TP53 / RFU, TNKS2 / Fold change vs veh, TNKS2 / RFU, ZFP14 / Fold change vs veh, ZFP14 / RFU, ACTR2 / Fold change vs veh, ACTR2 / RFU, PPP3R1 / Fold change vs veh, PPP3R1 / RFU, PIK3R1 / Fold change vs veh, PIK3R1 / RFU, HNRNPA1 / Fold change vs veh, HNRNPA1 / RFU, RNF170 / Fold change vs veh, RNF170 / RFU, ZNF28 / Fold change vs veh, ZNF28 / RFU, RNGTT / Fold change vs veh, RNGTT / RFU, OGT / Fold change vs veh, OGT / RFU, BRD1 / Fold change vs veh, BRD1 / RFU, MARS / Fold change vs veh, MARS / RFU, ZNF655 / Fold change vs veh, ZNF655 / RFU, FAHD1 / Fold change vs veh, FAHD1 / RFU, BDP1 / Fold change vs veh, BDP1 / RFU, LRRCC1 / Fold change vs veh, LRRCC1 / RFU, ARID1A / Fold change vs veh, ARID1A / RFU, ZNF146 / Fold change vs veh, ZNF146 / RFU, ZNF330 / Fold change vs veh, ZNF330 / RFU, GPN3 / Fold change vs veh, GPN3 / RFU, C9orf123 / Fold change vs veh, C9orf123 / RFU, N4BP2L2 / Fold change vs veh, N4BP2L2 / RFU, ARFIP1 / Fold change vs veh, ARFIP1 / RFU, FAM179B / Fold change vs veh, FAM179B / RFU, BCL10 / Fold change vs veh, BCL10 / RFU, UHRF1BP1L / Fold change vs veh, UHRF1BP1L / RFU, BET1 / Fold change vs veh, BET1 / RFU, CNOT2 / Fold change vs veh, CNOT2 / RFU, ZNF268 / Fold change vs veh, ZNF268 / Fold change vs veh, ZNF507 / RFU, DGCR2 / Fold change vs veh, DGCR2 / RFU, WDSUB1 / Fold change vs veh, WDSUB1 / Fold change vs veh, HSP90B1 /// MIR3652 / RFU, ADSS / Fold change vs veh, ADSS / RFU, GK / Fold change vs veh, GK / RFU, ZNF148 / Fold change vs veh, ZNF148 / RFU, TAF9 / Fold change vs veh, TAF9 / RFU, SLC1A5 / Fold change vs veh, SLC1A5 / RFU, SLMO2 / Fold change vs veh, SLMO2 / RFU, ABCC4 / Fold change vs veh, ABCC4 / RFU, LOC101060439 /// RAP1B / Fold change vs veh, LOC101060439 /// RAP1B / RFU, RFX7 / Fold change vs veh, RFX7 / RFU, GTPBP10 / Fold change vs veh, GTPBP10 / RFU, CNEP1R1 / Fold change vs veh, CNEP1R1 / RFU, BIVM-ERCC5 /// ERCC5 / Fold change vs veh, BIVM-ERCC5 /// ERCC5 / RFU, ILF3 / Fold change vs veh, ILF3 / RFU 11762660_at / Fold change /veh 11762660_at / RFU VCAN (11757783_s_at) / Fold change /veh VCAN (11757783_s_at) / RFU DDX43 (11728927_at) / Fold change /veh DDX43 (11728927_at) / RFU KRT8 (11758188_x_at) / Fold change /veh KRT8 (11758188_x_at) / RFU NKD1 (11759106_at) / Fold change /veh NKD1 (11759106_at) / RFU SRD5A1 (11742802_a_at) / Fold change /veh SRD5A1 (11742802_a_at) / RFU TPSAB1 /// TPSB2 (11721975_s_at) / Fold change /veh TPSAB1 /// TPSB2 (11721975_s_at) / RFU GSTM3 (11746129_a_at) / Fold change /veh GSTM3 (11746129_a_at) / RFU IL23R (11737362_x_at) / Fold change /veh IL23R (11737362_x_at) / RFU TMEM51 (11727254_a_at) / Fold change /veh TMEM51 (11727254_a_at) / RFU PIWIL2 (11732686_x_at) / Fold change /veh PIWIL2 (11732686_x_at) / RFU ORM1 (11744905_x_at) / Fold change /veh ORM1 (11744905_x_at) / RFU CCDC152 (11743942_at) / Fold change /veh CCDC152 (11743942_at) / RFU ECM1 (11717891_a_at) / Fold change /veh ECM1 (11717891_a_at) / RFU IL23R (11748794_a_at) / Fold change /veh IL23R (11748794_a_at) / RFU TNFAIP8L3 (11732012_x_at) / Fold change /veh TNFAIP8L3 (11732012_x_at) / RFU MBOAT4 (11741988_at) / Fold change /veh MBOAT4 (11741988_at) / RFU 11764193_at / Fold change /veh 11764193_at / RFU TMEM53 (11763286_at) / Fold change /veh TMEM53 (11763286_at) / RFU MAGEB2 (11727129_at) / Fold change /veh MAGEB2 (11727129_at) / RFU TMEM200A (11744735_a_at) / Fold change /veh TMEM200A (11744735_a_at) / RFU CCDC152 (11751479_a_at) / Fold change /veh CCDC152 (11751479_a_at) / RFU FAM211A (11726209_a_at) / Fold change /veh FAM211A (11726209_a_at) / RFU RGS16 (11746705_a_at) / Fold change /veh RGS16 (11746705_a_at) / RFU VCAN (11755009_s_at) / Fold change /veh VCAN (11755009_s_at) / RFU RHOB (11743442_s_at) / Fold change /veh RHOB (11743442_s_at) / RFU RGS16 (11720943_a_at) / Fold change /veh RGS16 (11720943_a_at) / RFU RGS16 (11720944_at) / Fold change /veh RGS16 (11720944_at) / RFU, VPS4B / Fold change vs veh, VPS4B / RFU, CREB1 / Fold change vs veh, CREB1 / RFU, DNAJC13 / Fold change vs veh, DNAJC13 / RFU, GNAQ / Fold change vs veh, GNAQ / RFU, CDK5R1 / Fold change vs veh, CDK5R1 / RFU, ZRANB3 / Fold change vs veh, ZRANB3 / RFU, CUL4A / Fold change vs veh, CUL4A / RFU, CCNY / Fold change vs veh, CCNY / RFU, UFL1 / Fold change vs veh, UFL1 / RFU, COG3 / Fold change vs veh, COG3 / RFU, DIAPH2 / Fold change vs veh, DIAPH2 / RFU, SKA2 / Fold change vs veh, SKA2 / RFU, AFF3 / Fold change vs veh, AFF3 / RFU, LMF1 / Fold change vs veh, LMF1 / RFU, IPO11 / Fold change vs veh, IPO11 / RFU, DFFB / Fold change vs veh, DFFB / RFU, FOXP1 / Fold change vs veh, FOXP1 / RFU, CARD8 / Fold change vs veh, CARD8 / RFU, STRN3 / Fold change vs veh, STRN3 / RFU, ADK / Fold change vs veh, ADK / RFU, RASSF2 / Fold change vs veh, RASSF2 / RFU, WIPF1 / Fold change vs veh, WIPF1 / RFU, LARP1B / Fold change vs veh, LARP1B / RFU, RASA1 / Fold change vs veh, RASA1 / RFU, RB1 / Fold change vs veh, RB1 / RFU, PPFIA1 / Fold change vs veh, PPFIA1 / RFU, MAT2A / Fold change vs veh, MAT2A / RFU, CCT5 / Fold change vs veh, CCT5 / RFU, WDR92 / Fold change vs veh, WDR92 / RFU, CUX1 / Fold change vs veh, CUX1 / RFU, TTC7A / Fold change vs veh, TTC7A / RFU, TMEM135 / Fold change vs veh, TMEM135 / RFU, DEPTOR / Fold change vs veh, DEPTOR / RFU, CPM / Fold change vs veh, CPM / RFU, DNAJB6 / Fold change vs veh, DNAJB6 / RFU, CACNA2D3 / Fold change vs veh, CACNA2D3 / RFU, DTX4 / Fold change vs veh, DTX4 / RFU, TFCP2 / Fold change vs veh, TFCP2 / RFU, GMCL1 /// GMCL1P1 / Fold change vs veh, GMCL1 /// GMCL1P1 / RFU, AEBP2 / Fold change vs veh, AEBP2 / RFU, SNHG1 /// SNORD22 /// SNORD25 /// SNORD26 /// SNORD27 /// SNORD28 /// SNORD29 /// SNORD31 / Fold change vs veh, SNHG1 /// SNORD22 /// SNORD25 /// SNORD26 /// SNORD27 /// SNORD28 /// SNORD29 /// SNORD31 / Fold change (Aza/veh), C12orf56 (ProbeSet 11735607_a_at) / Fold change (ACY-1035/veh), C12orf56 (ProbeSet 11735607_a_at) / Fold change (Aza/veh), FGFR1OP (ProbeSet 11751329_s_at) / Fold change (ACY-1035/veh), FGFR1OP (ProbeSet 11751329_s_at) / Fold change (Aza/veh), VPS36 (ProbeSet 11739960_a_at) / Fold change (ACY-1035/veh), VPS36 (ProbeSet 11739960_a_at) / RFU SYPL1 (11715823_x_at) / Fold change /veh SYPL1 (11715823_x_at) / RFU IGFBP7 (11715501_s_at) / Fold change /veh IGFBP7 (11715501_s_at) / RFU REEP3 (11722064_at) / Fold change /veh REEP3 (11722064_at) / RFU IGLL1 (11728026_x_at) / Fold change /veh IGLL1 (11728026_x_at): dose or concentration left out as unconfirmed
Conditions: ProbeSet 11758170_s_at; LIST D

For Nc1ccc(-c2cccs2)cc1NC(=O)c1ccc2c(c1)cc(C1CC1)n2CCN1CCOCC1 [ACY-1035], the “Fold change vs veh, DIAPH2” value was 1.00.
